One experiment deals with BALB/c and C57BL/6 mice. Put plainly: ELISA of sera of mice immunized with signal peptides (antibody response). Type of experiment: in vivo. As to conditions: for antibody response against VXL-301 (ELISA): VXL-301 coated plate; for antibody responses of immunized mice (ELISA, overall): summary of BALB/c and C57BL/6 ELISA results; for antibody response against VXL-303 (ELISA): VXL-303 coated plate. As for the experimental part:
(§1) BALB/c and C57BL/6 mice were immunized by subcutaneous (SC) injections with 100 μg of individual SPs or a SP mixture and with intraperitoneal injections of 100 ng of mouse granulocyte macrophage colony stimulating factor (mGM-CSF) three times at 7-day intervals.
To monitor if antibody response was developed against the SPs an enzyme-linked immunosorbent assay (ELISA) was performed with sera obtained on days 10 and 20 post the last immunization when VXL-301, or VXL-302, or VXL-303 or VXL-201c (negative control) were coated on the ELISA plate.

Experiment [1] deals with splenocytes of immunized C57BL/6 mice. Nature of the experiment: ELISpot of interleukin 2 after SP stimulation of splenocytes. The class given is cell-based. The note with it: SP stimulation of splenocytes of immunized C57BL/6 mice. As for the experimental part: as §1
Experiment [2] relates to splenocytes of immunized BALB/c mice. Put plainly: ELISpot of interferon gamma after SP stimulation of splenocytes. Type of experiment: cell-based. As for the experimental part: as §1
Experiment [3] deals with Peripheral blood mononuclear cells (PBMCs) from healthy donors. Put plainly: Ex vivo immunogenicity: proliferation of PBMCs stimulated by SP-loaded autologous dendritic cells. Type of experiment: cell-based. The note with it: healthy donor PBMCs; for proliferation in CD4+ and CD8+ T cells / proliferation versus positive control SPs: SP-loaded autologous DCs. As for the experimental part:
Immunogenicity is assessed by quantifying proliferation of T cells in response to exposure to peptides. To this end, healthy donor peripheral blood mononuclear cells (PBMCs) are marked by a fluorescent dye and exposed to either the naked peptide or to autologous antigen presenting cells (APCs) pre-loaded with the SP. Phytohaemagglutinin (PHA), or tetanus toxoid, (TT), or previously tested SPs, serve as a positive control for maximum stimulation. Unloaded APCs, or medium, or human Fab fragments serve as negative controls. Proliferation is calculated by the increase of CD3+ T cells and the fraction of cells with different number of cell divisions assessed by flow cytometry.
Peripheral blood mononuclear cells (PBMCs) from healthy donors were stimulated by SP-loaded autologous dendritic cells (DCs).

Setting [4] is: BALB/c mice, sera day 10 post last immunization, 100 μg SC + mGM-CSF, three times.
The mark [5] stands for this setting: C57BL/6 mice, sera day 20 post last immunization.

As to MFVFLVLLPLVSSQC [VXL-301], the “antibody response against VXL-301 (ELISA)” value with BALB/c and C57BL/6 mice (setting [4]) is reported as “greatest antibody response”. Moreover, the “antibody response against VXL-301 (ELISA)” value in the experiment with BALB/c and C57BL/6 mice (setting [5]) was “highest antibody responses”. Also, the “antibody responses of immunized mice (ELISA, overall)” value in the experiment on BALB/c and C57BL/6 mice is recorded as “demonstrated antibody responses”. Also, the “secretion of interleukin 2 (ELISpot)” value in experiment [1] was “induced secretion of interleukin 2 primarily in the VXL-301- and the SP mixture-immunized groups”. Moreover, the “secretion of interferon gamma (ELISpot)” value in experiment [2] was “induced secretion of interferon gamma primarily in the VXL-301- and the SP mixture-immunized groups”. In addition, in experiment [3], the “proliferation versus unloaded DCs (non-specific proliferation)” value is listed as “proliferation that was greater than unloaded DCs”; the “proliferation in CD4+ and CD8+ T cells” value is “evident in both CD4+ cytotoxic T cells and CD8+ helper T cells”; the “proliferation versus positive control SPs” value is listed as “comparable to the levels observed for positive control SPs”.
Take MKFLVFLGIITTVAA [VXL-303]: the “antibody response against VXL-303 (ELISA)” value with BALB/c and C57BL/6 mice (setting [4]) is recorded as “greatest antibody response”. The “antibody response against VXL-303 (ELISA)” value with BALB/c and C57BL/6 mice (setting [5]) was “highest antibody responses”. Further, the “antibody responses of immunized mice (ELISA, overall)” value with BALB/c and C57BL/6 mice is reported as “demonstrated antibody responses”. Also, the “secretion of interleukin 2 (ELISpot)” value in experiment [1] was “induced secretion of interleukin 2 primarily in the VXL-303- and the SP mixture-immunized groups”. In addition, the “secretion of interferon gamma (ELISpot)” value in experiment [2] is “induced secretion of interferon gamma primarily in the VXL-303- and the SP mixture-immunized groups”. For the same sequence, in experiment [3], the “proliferation versus unloaded DCs (non-specific proliferation)” value is “proliferation that was greater than unloaded DCs”; the “proliferation in CD4+ and CD8+ T cells” value was “evident in both CD4+ cytotoxic T cells and CD8+ helper T cells”; the “proliferation versus positive control SPs” value was “comparable to the levels observed for positive control SPs”.
Take “MKIILFLALITLATC [VXL-302, signal peptide of SARS-CoV-2 ORF7a]”: the “secretion of interleukin 2 (ELISpot)” value in experiment [1] is recorded as “induced secretion of interleukin 2 primarily in the VXL-302-immunized group”. For the same sequence, in experiment [2], the “secretion of interferon gamma (ELISpot)” value was “induced secretion of interferon gamma primarily in the VXL-302 immunized group”. Further, in experiment [3], the “proliferation versus unloaded DCs (non-specific proliferation)” value is “proliferation that was greater than unloaded DCs”; the “proliferation in CD4+ and CD8+ T cells” value was “evident in both CD4+ cytotoxic T cells and CD8+ helper T cells”; the “proliferation versus positive control SPs” value is given as “comparable to the levels observed for positive control SPs”.

These data come from US20230119806A1, “ANTIGEN SPECIFIC EPITOPE BASED ANTI-INFECTIVE VACCINES” (VAXIL BIOTHERAPEUTICS LTD., priority 2020, published 2023).
